Data: patent publication US20240083920A1, “LOW MOLECULAR WEIGHT CORROLE COMPOSITIONS” (TECHNION RESEARCH & DEVELOPMENT FOUNDATION LTD, priority 2021, published 2024)

Experiment: Stability in solution / on storage
Settings: in solution / ambient conditions

C1=Cc2cc3ccc([nH]3)c3ccc(cc4ccc(cc1n2)[nH]4)[nH]3 [H3(cor)]
stability: stability was limited due to ambient humidity and light conditions
